Measurements from PubChem BioAssay (NCI).
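Dose response: 5 concentrations. Exposure: 48 h. Format: 96-well plates. Endpoint: linear interpolation; highest concentration if not reached. TGI denotes the concentration required for complete inhibition of growth.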

Assays:
Test in all cases: NCI-60 cell line screen, 48 h
786-0 renal = test system: 786-0 renal
A549 NSCLC = test system: A549 NSCLC
ACHN renal = test system: ACHN renal
BT-549 breast = test system: BT-549 breast
CAKI-1 renal = test system: CAKI-1 renal
COLO 205 colon = test system: COLO 205 colon
DU-145 prostate = test system: DU-145 prostate
EKVX NSCLC = test system: EKVX NSCLC
HCT-116 colon = test system: HCT-116 colon
HCT-15 colon = test system: HCT-15 colon
HL-60(TB) leukemia = test system: HL-60(TB) leukemia
HOP-62 NSCLC = test system: HOP-62 NSCLC
HOP-92 NSCLC = test system: HOP-92 NSCLC
HS 578T breast = test system: HS 578T breast
HT29 colon = test system: HT29 colon
IGROV1 ovarian = test system: IGROV1 ovarian
K-562 leukemia = test system: K-562 leukemia
KM12 colon = test system: KM12 colon
M14 melanoma = test system: M14 melanoma
MALME-3M melanoma = test system: MALME-3M melanoma
MCF7 breast = test system: MCF7 breast
MDA-MB-231 breast = test system: MDA-MB-231 breast
MDA-MB-435 = test system: MDA-MB-435
MOLT-4 leukemia = test system: MOLT-4 leukemia
NCI-H226 lung = test system: NCI-H226 lung
NCI-H23 lung = test system: NCI-H23 lung
NCI-H460 lung = test system: NCI-H460 lung
NCI-H522 lung = test system: NCI-H522 lung
NCI/ADR-RES ovarian = test system: NCI/ADR-RES ovarian
OVCAR-3 ovarian = test system: OVCAR-3 ovarian
OVCAR-4 ovarian = test system: OVCAR-4 ovarian
OVCAR-5 ovarian = test system: OVCAR-5 ovarian
OVCAR-8 ovarian = test system: OVCAR-8 ovarian
PC-3 prostate = test system: PC-3 prostate
RPMI-8226 leukemia = test system: RPMI-8226 leukemia
RXF 393 renal = test system: RXF 393 renal
SF-268 CNS = test system: SF-268 CNS
SF-295 CNS = test system: SF-295 CNS
SF-539 CNS = test system: SF-539 CNS
SK-MEL-2 melanoma = test system: SK-MEL-2 melanoma
SK-MEL-28 melanoma = test system: SK-MEL-28 melanoma
SK-MEL-5 melanoma = test system: SK-MEL-5 melanoma
SK-OV-3 ovarian = test system: SK-OV-3 ovarian
SN12C renal = test system: SN12C renal
SNB-19 CNS = test system: SNB-19 CNS
SNB-75 CNS = test system: SNB-75 CNS
SR leukemia = test system: SR leukemia
SW-620 colon = test system: SW-620 colon
T-47D breast = test system: T-47D breast
TK-10 renal = test system: TK-10 renal
U251 CNS = test system: U251 CNS
UACC-257 melanoma = test system: UACC-257 melanoma
UACC-62 melanoma = test system: UACC-62 melanoma
UO-31 renal = test system: UO-31 renal
A498 renal = test system: A498 renal
CCRF-CEM leukemia = test system: CCRF-CEM leukemia
HCC-2998 colon = test system: HCC-2998 colon

O=[N+]([O-])c1ccc(-c2nc(/C=N/N3CCCCC3)cs2)o1
TGI (786-0 renal): > 100 µM | TGI (A549 NSCLC): > 100 µM | TGI (ACHN renal): > 100 µM | TGI (BT-549 breast): > 100 µM | TGI (CAKI-1 renal): > 100 µM | TGI (COLO 205 colon): > 100 µM | TGI (DU-145 prostate): > 100 µM | TGI (EKVX NSCLC): > 100 µM | TGI (HCT-116 colon): > 100 µM | TGI (HCT-15 colon): > 100 µM | TGI (HL-60(TB) leukemia): > 100 µM | TGI (HOP-62 NSCLC): > 100 µM | TGI (HOP-92 NSCLC): > 100 µM | TGI (HS 578T breast): > 100 µM | TGI (HT29 colon): 57.1 µM | TGI (IGROV1 ovarian): > 100 µM | TGI (K-562 leukemia): > 100 µM | TGI (KM12 colon): > 100 µM | TGI (M14 melanoma): > 100 µM | TGI (MALME-3M melanoma): 76.6 µM | TGI (MCF7 breast): > 100 µM | TGI (MDA-MB-231 breast): > 100 µM | TGI (MDA-MB-435): 62.6 µM | TGI (MOLT-4 leukemia): 67 µM | TGI (NCI-H226 lung): > 100 µM | TGI (NCI-H23 lung): > 100 µM | TGI (NCI-H460 lung): > 100 µM | TGI (NCI-H522 lung): > 100 µM | TGI (NCI/ADR-RES ovarian): > 100 µM | TGI (OVCAR-3 ovarian): 82.4 µM | TGI (OVCAR-4 ovarian): > 100 µM | TGI (OVCAR-5 ovarian): > 100 µM | TGI (OVCAR-8 ovarian): > 100 µM | TGI (PC-3 prostate): > 100 µM | TGI (RPMI-8226 leukemia): 39.8 µM | TGI (RXF 393 renal): > 100 µM | TGI (SF-268 CNS): > 100 µM | TGI (SF-295 CNS): > 100 µM | TGI (SF-539 CNS): > 100 µM | TGI (SK-MEL-2 melanoma): > 100 µM | TGI (SK-MEL-28 melanoma): > 100 µM | TGI (SK-MEL-5 melanoma): 59.5 µM | TGI (SK-OV-3 ovarian): > 100 µM | TGI (SN12C renal): 68.1 µM | TGI (SNB-19 CNS): > 100 µM | TGI (SNB-75 CNS): > 100 µM | TGI (SR leukemia): 73 µM | TGI (SW-620 colon): > 100 µM | TGI (T-47D breast): > 100 µM | TGI (TK-10 renal): > 100 µM | TGI (U251 CNS): > 100 µM | TGI (UACC-257 melanoma): 50.7 µM | TGI (UACC-62 melanoma): > 100 µM | TGI (UO-31 renal): > 100 µM

COc1ccc2c(c1)-c1c(c3cc(OC)ccc3n1CCN1CCOCC1)CC2
TGI (786-0 renal): 42.5 µM | TGI (A498 renal): > 100 µM | TGI (A549 NSCLC): > 100 µM | TGI (ACHN renal): > 100 µM | TGI (BT-549 breast): > 100 µM | TGI (CAKI-1 renal): > 100 µM | TGI (CCRF-CEM leukemia): 35.6 µM | TGI (COLO 205 colon): 37.3 µM | TGI (DU-145 prostate): > 100 µM | TGI (HCC-2998 colon): 18.5 µM | TGI (HCT-116 colon): > 100 µM | TGI (HCT-15 colon): 39.4 µM | TGI (HOP-62 NSCLC): > 100 µM | TGI (HOP-92 NSCLC): > 100 µM | TGI (HS 578T breast): 39.9 µM | TGI (HT29 colon): 28.1 µM | TGI (IGROV1 ovarian): > 100 µM | TGI (K-562 leukemia): 36.2 µM | TGI (KM12 colon): > 100 µM | TGI (M14 melanoma): 35 µM | TGI (MALME-3M melanoma): 79.2 µM | TGI (MCF7 breast): > 100 µM | TGI (MDA-MB-231 breast): > 100 µM | TGI (MDA-MB-435): > 100 µM | TGI (MOLT-4 leukemia): 33.6 µM | TGI (NCI-H226 lung): 30.6 µM | TGI (NCI-H23 lung): > 100 µM | TGI (NCI-H460 lung): > 100 µM | TGI (NCI-H522 lung): > 100 µM | TGI (NCI/ADR-RES ovarian): 98.4 µM | TGI (OVCAR-3 ovarian): > 100 µM | TGI (OVCAR-4 ovarian): > 100 µM | TGI (OVCAR-5 ovarian): > 100 µM | TGI (OVCAR-8 ovarian): > 100 µM | TGI (PC-3 prostate): > 100 µM | TGI (RPMI-8226 leukemia): 85.5 µM | TGI (RXF 393 renal): 98 µM | TGI (SF-268 CNS): > 100 µM | TGI (SF-295 CNS): 55.2 µM | TGI (SF-539 CNS): 93.6 µM | TGI (SK-MEL-2 melanoma): > 100 µM | TGI (SK-MEL-28 melanoma): > 100 µM | TGI (SK-MEL-5 melanoma): 79.5 µM | TGI (SK-OV-3 ovarian): > 100 µM | TGI (SN12C renal): > 100 µM | TGI (SNB-75 CNS): > 100 µM | TGI (SR leukemia): 22 µM | TGI (SW-620 colon): > 100 µM | TGI (T-47D breast): > 100 µM | TGI (TK-10 renal): > 100 µM | TGI (U251 CNS): > 100 µM | TGI (UACC-257 melanoma): > 100 µM | TGI (UACC-62 melanoma): 52.6 µM | TGI (UO-31 renal): > 100 µM
